Source: US5698547A, “Cephalosporin antibiotics” (Microcide Pharmaceuticals, Inc., priority 1995, dated 1997)
≈ marks a conversion by molar mass, not a printed value. Structures can show the parent of a compound that is named as a salt.

Each compound was assayed on S. aureus Col (Meth^R) (lac^-) (assay: MIC by agar dilution, S. aureus Col (Meth^R) (lac^-)). Settings: Staphylococcus aureus; agar dilution; S. aureus Col (Meth^R) (lac^-); read-out: MIC.
Assay type: cell-based
Method: The compounds of the invention were evaluated against several β-lactamresistant bacteria strains by determining the minimum inhibitory concentration (MIC, μg/ml) of each compound with respect to each strain. The MIC, the lowest concentration of antibiotic which inhibits growth of the test organism, was determined by the agar dilution method.
To determine the MIC for bacterial isolates, the test compound was incorporated in a series of two-fold dilutions into liquified Mueller-Hinton agar. Upon solidification, a number of different bacterial strains were spot inoculated with a replicating device onto the agar surface. […] The procedures used in these studies have been standardized by the National Committee for Clinical Laboratory Standards (NCCLS), as per the NCCLS publication entitled METHODS FOR DILUTION ANTIMICROBIAL SUSCEPTIBILITY TESTS (1991), which is incorporated herein by reference.
Aliquots of antimicrobial agents were prepared in phosphate buffered saline (PBS) at pH 7.2. Tween 20 or DMSO was used as a solubilizing vehicle as needed. Standard methods of vortexing, sonicating and gentle heat were used to facilitate solubilizing the test agent. Typically, the concentration of the stock solution was 10× that of the highest drug concentration tested. A 1.28 mg/mL stock solution was used with a subsequent highest working concentration of 128 μg/mL. Serial two-fold dilutions were done through ≤0.25 μg/mL. Each drug level was tested in duplicate. Two-fold drug dilutions were done in sterile 50 mL tubes with a final drug volume of 5 mL. Upon the addition of 45 mL of molten agar, a 10-fold dilution resulted. Two, 25 mL. plates were then poured into 15×150 mm square Petri plates with grids and allowed to harden.
A control plate with a reference drug, either cefotaxime, vancomycin or imipenem, was used as the positive growth control. Stock concentrations of reference antibiotics were prepared and frozen at -80° C. Upon preparation, the control plates were sealed and stored in the refrigerator for up to 1 week prior to use; however, imipenem control plates had to be prepared just prior to use. All test plates were used within 24 hours of preparation.
Satisfactory results were obtained where the inoculum contained about 10^4 colony forming units (cfu) ±0.5 logs. Starting with pure cultures of the test isolates on agar plates, a few isolated colonies were transferred to a tube of nutrient broth and allowed to grow 4-6 hours at 35°-36° C. to reach log-phase growth. Dropwise addition of the broth culture to PBS was done to match a 0.5 McFarland turbidity standard equal to 10^8 cfu/mL. This was further diluted ten-fold in PBS to reach a working inoculum concentration of 10^7 cfu/mL. When 1 μL of the working inoculum was applied to the agar surface a concentration of about 10^4 cfu per spot was obtained.
Disposable sterile 1 μL loops were used to inoculate test plates, with each isolate in a designated grid on the agar plate. An alternate method of inoculation involved the use of a replica plater, a device with 48 steel pins allowing the simultaneous inoculation of multiple isolates. After the spots had dried, the plates were incubated at 35°-36° C. for 16-20 hours. Endpoints were assessed as the minimum inhibitory concentration (MIC) of antimicrobial agent.
The novel agents of this invention are notable for their enhanced activity against S. aureus Col and Enterococci (E. faecium and E. faecalis). The S. aureus Col strain is a high-level PBP2a producer, whereas S. aureus Col 8A, its isogenic partner, lacks PBP2a. […] Thus, the compounds of the present invention are effective against PBP2a-producing bacteria.

SMILES | MIC
COC(=O)c1ccccc1SC1=C(C(=O)O)N2C(=O)[C@@H](NC(=O)Cc3ccccc3)[C@H]2SC1 [Cmpd 19, (7R)-7-[(Phenylacetyl)amino]-3-(o-carbomethoxyphenylthio)-3-cephem-4-carboxylic acid] | 4 µg/mL (≈ 8.25 µM)
Cn1nnnc1SCc1ccccc1SC1=C(C(=O)O)N2C(=O)[C@@H](NC(=O)Cc3ccccc3)[C@H]2SC1 [Cmpd 71] | 16 µg/mL (≈ 28.8 µM)
CSc1ccccc1SC1=C(C(=O)O)N2C(=O)[C@@H](NC(=O)Cc3ccccc3)[C@H]2SC1 [Cmpd 44, (7R)-7-[(Phenylacetyl)amino]-3-(2-methylthiophenylthio)-3-cephem-4-carboxylic acid] | 2 µg/mL (≈ 4.23 µM)
CCN=C(NCC)SCc1ccccc1SC1=C(C(=O)O)N2C(=O)[C@@H](NC(=O)Cc3ccccc3)[C@H]2SC1 [Cmpd 74, (7R)-7-[(Phenylacetyl)amino]-3-(2-N,N'-diethylisothiouroniummethylphenylthio)-3-cephem-4-carboxylate, inner salt] | 16 µg/mL
CCCCCC(=O)N[C@@H]1C(=O)N2C(C(=O)O)=C(Sc3ccnn3-c3ccccc3)CS[C@H]12 [Cmpd 109, (7R)-7-[(hexanoyl)amino]-3-(1-N-phenylpyrazol-5-ylthio)-3-cephem-4-carboxylic acid] | 4 µg/mL (≈ 8.46 µM)
O=C(COc1ccc(Cl)cc1)N[C@@H]1C(=O)N2C(C(=O)O)=C(Sc3cc(Cl)ccc3Cl)CS[C@H]12 [Cmpd 31, (7R)-7-[(p-Chlorophenoxyacetyl)amino]-3-(2,5-dichlorophenylthio)-3-cephem-4-carboxylic acid] | 1 µg/mL (≈ 1.83 µM)
O=C(Cc1ccccc1)N[C@@H]1C(=O)N2C(C(=O)O)=C(Sc3ccnn3-c3cccc([N+](=O)[O-])c3)CS[C@H]12 [Cmpd 113, (7R)-7-[(Phenylacetyl)amino]-3-(1-N-(3-nitrophenyl)pyrazol-5-ylthio)-3-cephem-4-carboxylic acid] | 4 µg/mL (≈ 7.44 µM)
O=C(O)C1=C(Sc2ccnn2-c2ccccc2)CS[C@@H]2[C@H](NC(=O)C(=NO)c3ccco3)C(=O)N12 [Cmpd 121, (7R)-7-[2-(2-furyl)-2-(hydroxyimino)acetamido]-3-(1-N-phenylpyrazol-5-ylthio)-3-cephem-4-carboxylic acid] | 4 µg/mL (≈ 7.82 µM)
O=C(Cc1ccccc1)N[C@@H]1C(=O)N2C(C(=O)O)=C(Sc3ccccc3-c3ccco3)CS[C@H]12 [Cmpd 27, (7R)-7-[(Phenylacetyl)amino]-3-(2-(2-furyl)phenylthio)-3-cephem-4-carboxylic acid] | 1 µg/mL (≈ 2.03 µM)
CSCC(=O)N[C@@H]1C(=O)N2C(C(=O)O)=C(Sc3ccccc3CSC(=N)NC(=N)N)CS[C@H]12 [Cmpd 126, (7R)-7-[(methylthioacetyl)amino]-3-(2-(N-amidino)isothiouroniummethylphenylthio)-3-cephem-4-carboxylate, inner salt] | 8 µg/mL
O=C(Cc1ccccc1)N[C@@H]1C(=O)N2C(C(=O)O)=C(Sc3ccccc3CSC3=NCCN3)CS[C@H]12 [Cmpd 72] | 4 µg/mL (≈ 7.4 µM)
O=C(COc1ccc(Cl)cc1)N[C@@H]1C(=O)N2C(C(=O)O)=C(Sc3ccccc3I)CS[C@H]12 [Cmpd 30, (7R)-7-[(p-Chlorophenoxyacetyl)amino]-3-(o-iodophenylthio)-3-cephem-4-carboxylic acid] | 0.5 µg/mL (≈ 0.829 µM)
CC(=O)NC(=N)SCc1ccccc1SC1=C(C(=O)O)N2C(=O)[C@@H](NC(=O)Cc3ccccc3)[C@H]2SC1 [Cmpd 78, (7R)-7-[(Phenylacetyl)amino]-3-(2-N-acetylamidinothiomethylphenylthio)-3-cephem-4-carboxylic acid] | 4 µg/mL (≈ 7.19 µM)
N=C(N)NC(=N)SCc1ccc(SC2=C(C(=O)O)N3C(=O)[C@@H](NC(=O)Cc4ccccc4)[C@H]3SC2)c(I)c1 [Cmpd 60, (7R)-7-[(Phenylacetyl)amino]-3-(4-(N-amidino)isothiouroniummethyl-2-iodophenylthio)-3-cephem-4-carboxylate, inner salt] | 0.5 µg/mL
O=C(Cc1ccccc1)N[C@@H]1C(=O)N2C(C(=O)O)=C(Sc3cc(Cl)ccc3Cl)CS[C@H]12 [Cmpd 16, (7R)-7-[(Phenylacetyl)amino]-3-(2,5-dichlorophenylthio)-3-cephem-4-carboxylic acid] | < 0.5 µg/mL
O=C(Cc1ccccc1)N[C@@H]1C(=O)N2C(C(=O)O)=C(Sc3cccc(I)c3)CS[C@H]12 [Cmpd 2, (7R)-7-[(Phenylacetyl)amino]-3-(m-iodophenylthio)-3-cephem-4-carboxylic acid] | 2 µg/mL (≈ 3.62 µM)
COc1ccc(-n2nccc2SC2=C(C(=O)O)N3C(=O)[C@@H](NC(=O)Cc4ccccc4)[C@H]3SC2)cc1 [Cmpd 114, (7R)-7-[(Phenylacetyl)amino]-3-(1-N-(4-methoxyphenyl)pyrazol-5-ylthio)-3-cephem-4-carboxylic acid] | 4 µg/mL (≈ 7.65 µM)
CN=C(N)SCc1ccccc1SC1=C(C(=O)O)N2C(=O)[C@@H](NC(=O)Cc3ccccc3)[C@H]2SC1 [Cmpd 76, (7R)-7-[(Phenylacetyl)amino]-3-(2-N-methylisothiouroniummethylphenylthio)-3-cephem-4-carboxylate, inner salt] | 2 µg/mL
O=C(Cc1cccs1)N[C@@H]1C(=O)N2C(C(=O)O)=C(Sc3ccccc3I)CS[C@H]12 [Cmpd 25, (7R)-7-[(2-Thienylacetyl)amino]-3-(o-iodophenylthio)-3-cephem-4-carboxylicacid] | 1 µg/mL (≈ 1.79 µM)
O=C(CSc1ccccc1)N[C@@H]1C(=O)N2C(C(=O)O)=C(Sc3cc(Cl)ccc3Cl)CS[C@H]12 [Cmpd 35, (7R)-7-[(Phenylthioacetyl)amino]-3-(2,5-dichlorophenylthio)-3-cephem-4-carboxylic acid] | 0.5 µg/mL (≈ 0.948 µM)
N=C(N)NCc1ccccc1SC1=C(C(=O)O)N2C(=O)[C@@H](NC(=O)Cc3ccccc3)[C@H]2SC1 [Cmpd 128, (7R)-7-[(Phenylacetyl)amino]-3-(2-guanidiniummethylphenylthio)-3-cephem-4-carboxylate, inner salt] | 8 µg/mL
O=C(Cc1cccs1)N[C@@H]1C(=O)N2C(C(=O)O)=C(Sc3ccnn3-c3ccccc3)CS[C@H]12 [Cmpd 116, (7R)-7-[(2-thienylacetyl)amino]-3-(1-N-phenylpyrazol-5-ylthio)-3-cephem-4-carboxylic acid] | 4 µg/mL (≈ 8.02 µM)
O=C(Cc1ccccc1)N[C@@H]1C(=O)N2C(C(=O)O)=C(Sc3ccccc3CO)CS[C@H]12 [Cmpd 38, (7R)-7-[(Phenylacetyl)amino]-3-(2-hydroxymethylphenylthio)-3-cephem-4-carboxylic acid] | 4 µg/mL (≈ 8.76 µM)
O=C(Cc1ccccc1)N[C@@H]1C(=O)N2C(C(=O)O)=C(Sc3ccc(-c4ccccc4)cc3F)CS[C@H]12 [Cmpd 13, (7R)-7-[(Phenylacetyl)amino]-3-(2-fluoro-4-biphenylthio)-3-cephem-4-carboxylic acid] | 4 µg/mL (≈ 7.68 µM)
O=C(Cc1ccccc1)N[C@@H]1C(=O)N2C(C(=O)O)=C(Sc3cccc(Cl)c3Cl)CS[C@H]12 [Cmpd 24, (7R)-7-[(Phenylacetyl)amino]-3-(2,3-dichlorophenylthio)-3-cephem-4-carboxylic acid] | 1 µg/mL (≈ 2.02 µM)
O=C(Cc1cccs1)N[C@@H]1C(=O)N2C(C(=O)O)=C(Sc3ccccc3Br)CS[C@H]12 [Cmpd 20, (7R)-7-[(2-Thienylacetyl)amino]-3-(o-bromophenylthio)-3-cephem-4-carboxylic acid] | 0.5 µg/mL (≈ 0.978 µM)
O=C(Cc1ccccc1)N[C@@H]1C(=O)N2C(C(=O)O)=C(Sc3ccc(F)cc3)CS[C@H]12 [Cmpd 1, (7R)-7-[(Phenylacetyl)amino]-3-(p-fluorophenylthio)-3-cephem-4-carboxylic acid] | 16 µg/mL (≈ 36 µM)
N#CCC(=O)N[C@@H]1C(=O)N2C(C(=O)O)=C(Sc3cccnc3-c3ccccc3)CS[C@H]12 [Cmpd 85, (7R)-7-[(Cyanoacetyl)amino]-3-(2-phenylpyridin-3-ylthio)-3-cephem-4-carboxylic acid] | 4 µg/mL (≈ 8.84 µM)
COc1cccc(-n2nccc2SC2=C(C(=O)O)N3C(=O)[C@@H](NC(=O)Cc4ccccc4)[C@H]3SC2)c1 [Cmpd 117, (7R)-7-[(Phenylacetyl)amino]-3-(1-N-(3-methoxyphenyl)pyrazol-5-ylthio)-3-cephem-4-carboxylic acid] | 8 µg/mL (≈ 15.3 µM)
